The assay has as its target T1, hTSHR (Homo sapiens, UniProt P16473).
T1 construct: expressed in transfected cells
The assay can be described thus: hTSHR TR-FRET cAMP Assay (inhibition of M22-stimulated cAMP production). Format: cell-based. Conditions: Expi293F Inducible cells stably expressing hTSHR; cAMP HTRF; stimulated with EC80 of anti-TSHR antibody M22; 15 min compound preincubation, 30 min at 37° C.; read-out: Activity (IC50 bins). As for the experimental part:
Assays were performed using Expi293F Inducible cells (Invitrogen) stably expressing hTSHR via a pcZeo TetO DNA plasmid. Cell lines were maintained in suspension in Expi293 Expression Medium (ThermoFisher Scientific) supplemented with 10 µg/mL Blasticidin and 10 μg/mL Zeocin and incubated at 37° C., 8% CO2, with shaking. hTSHR cells were incubated overnight at 32° C., 5% C02, with shaking, but […] Doxycycline. Assay-ready aliquots were prepared by harvesting each cell type separately 24-hours post-induction. Cells were pelleted at 4° C., resuspended in Expi293 Expression media+10% DMSO, aliquoted, and kept frozen at −80° C. until ready for use.
For the assay, concentration-response curves of test and reference compounds were added to 384-well plates using an Echo 650 liquid handler (Beckman Coulter) and backfilled with DMSO to a final concentration of 0.5%. cAMP was measured using the cisbio cAMP Gs dynamic HTRF kit (PerkinElmer) according to manufacturer instructions. Aliquots of frozen hTSHR cells were quickly thawed and washed with phosphate-buffered saline (Sigma-Aldrich) to remove media and DMSO. The cells were resuspended in kit-supplied Stimulation Buffer at 0.8×10^6 cells/mL. 7.5 μL of the hTSHR cell dilution were added to each well of the assay plate and incubated with the compounds for 15 minutes in a 37 C, 0% CO2 incubator. 2.5 μL of Vehicle control or an EC80 concentration of recombinant human anti-TSHR antibody (M22, Creative Biolabs) was added to stimulate cAMP production. Cells were incubated with for 30 minutes at 37° C., 0% CO2. Following this incubation, the cells were lysed and accumulated cAMP was detected through the addition of kit-supplied lysis buffer containing d2-reagent and Eu-cryptate antibody. The HTRF signal was quantified using a BMG Clariostar plate reader optimized for HTRF assays. The HTRF ratio was determined by dividing the signal output at […] by that at 620 nm. Data were normalized to the signal produced by the EC80 concentration of either M22 or FSH (0% inhibition) and vehicle (no agonist, 100% inhibition).

The structures appear in SMILES notation.

T1 sequence (P16473 21-764): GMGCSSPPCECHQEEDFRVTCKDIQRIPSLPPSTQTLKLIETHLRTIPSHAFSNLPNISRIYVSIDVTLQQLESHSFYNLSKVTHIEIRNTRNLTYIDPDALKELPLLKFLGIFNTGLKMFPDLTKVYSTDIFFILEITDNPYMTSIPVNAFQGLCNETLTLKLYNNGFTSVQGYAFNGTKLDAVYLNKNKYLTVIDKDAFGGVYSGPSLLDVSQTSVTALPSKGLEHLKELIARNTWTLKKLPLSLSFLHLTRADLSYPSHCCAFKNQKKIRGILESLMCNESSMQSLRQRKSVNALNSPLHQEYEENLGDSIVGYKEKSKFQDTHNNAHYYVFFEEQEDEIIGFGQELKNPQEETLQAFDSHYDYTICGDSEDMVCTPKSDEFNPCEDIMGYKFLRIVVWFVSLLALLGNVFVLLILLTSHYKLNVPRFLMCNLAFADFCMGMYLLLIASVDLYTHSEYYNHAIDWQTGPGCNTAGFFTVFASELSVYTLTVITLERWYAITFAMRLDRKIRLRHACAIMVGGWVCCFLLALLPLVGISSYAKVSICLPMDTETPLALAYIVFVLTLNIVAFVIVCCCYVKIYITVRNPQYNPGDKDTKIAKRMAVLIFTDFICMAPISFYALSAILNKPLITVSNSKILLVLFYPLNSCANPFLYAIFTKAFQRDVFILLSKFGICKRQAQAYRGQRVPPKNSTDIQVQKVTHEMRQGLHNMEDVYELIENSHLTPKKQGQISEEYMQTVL

As to `C[C@@H](c1cccc([C@@H](O)C(F)(F)F)n1)n1c(=O)cnc2cc(NC(=O)NC(C)(C)C)ccc21` [Example 153], the IC50 is 0.1 to 1 µM.
To `CC(C)(C)NC(=O)Nc1ccc2c(c1)OCC(=O)N2Cc1cccc(CO)c1` [Example 72, 1-(tert-butyl)-3-(4-(3-(hydroxy-methyl)ben-zyl)-3-oxo-3,4-dihydro-2H-benzo[b][1,4]oxa-zin-7-yl)urea] belongs more than 1 µM; to `C[C@@H](c1cccc(Cl)c1)n1c(=O)cnc2cc(NC(=O)NC(C)(C)C)ccc21` [Example 131, (S)-1-(tert-butyl)-3-(1-(1-(3-chlorophenyl)ethyl)-2-oxo-1,2-dihydroquinoxalin-6-yl)urea], less than 0.1 µM; to `C[C@@H](c1cccc([C@@H](O)C(F)(F)F)c1)n1c(=O)cnc2cc(NC(=O)NC(C)(C)C)ccc21` [Example 155, 1-(tert-butyl)-3-(2-oxo-1-((S)-1-(3-((S)-2,2,2-trifluoro-1-hydroxyethyl)phe-nyl)ethyl)-1,2-dihydroquinoxalin-6-yl)urea], 0.1 to 1 µM.
The result for `C[C@H](c1cccc(Cl)c1)N1C(=O)N(C)Cc2cc(NC(=O)NC(C)(C)C)ccc21` [Example 52] reads more than 1 µM.
`CC(C)(C)NC(=O)Nc1ccc2c(c1)OCC(=O)N2Cc1cccc(C2CC2)c1` [Example 73, 1-(tert-butyl)-3-(4-(3-cyclopropylbenzyl)-3-oxo-3,4-dihydro-2H-benzo[b][1,4]oxa-zin-7-yl)urea]: the IC50 lay within 0.1 to 1 µM.
The result for `C[C@@H]1Oc2nc(NC(=O)NC(C)(C)C)ccc2N(Cc2cccc(Cl)c2)C1=O` [Example 286, (S)-1-(tert-butyl)-3-(1-(3-chlorobenzyl)-3-methyl-2-oxo-2,3-dihydro-1H-pyrido[2,3-b][1,4]oxazin-6-yl)urea] reads more than 1 µM.
To `C[C@H]1Oc2cc(NC(=O)NC3(C(F)(F)F)CC(F)(F)C3)ccc2N([C@@H](C)c2ccccc2)C1=O` [Example 264, 1-(3,3-difluoro-1-(trifluoromethyl)-cyclobutyl)-3-((R)-2-methyl-3-oxo-4-((S)-1-phenylethyl)-3,4-dihydro-2H-benzo[b][1,4]oxazin-7-yl)urea] belongs 0.1 to 1 µM; to `CN1Cc2cc(NC(=O)NC(C)(C)C)ccc2N(Cc2cccc(Cl)c2)C1=O` [Example 47, 1-(tert-butyl)-3-(1-(3-chlorobenzyl)-3-methyl-2-oxo-1,2,3,4-tetrahydroquinazolin-6-yl)urea], less than 0.1 µM; to `CC(O)c1cccc([C@H](C)n2c(=O)cnc3cc(NC(=O)NC(C)(C)C)ccc32)c1` (stereo partly drawn) [Example 146, 1-(tert-butyl)-3-(1-((1S)-1-(3-(1-hydroxy-ethyl)phenyl)eth-yl)-2-oxo-1,2-dihydroquinoxalin-6-yl)urea], more than 1 µM.
To `C[C@@H](c1cccc(C(F)(F)F)n1)n1c(=O)cnc2cc(NC(=O)NC(C)(C)C)ccc21` [Example 103, (S)-1-(tert-butyl)-3-(2-oxo-1-(1-(6-(tri-fluoromethyl)pyridin-2-yl)ethyl)-1,2-dihydroquinoxalin-6-yl)urea] belongs 0.1 to 1 µM; to `C[C@H]1Oc2cc(NC(=O)NC(C)(C)C)ccc2N(Cc2cccc(C(F)(F)F)n2)C1=O` [Example 161, (R)-1-(tert-butyl)-3-(2-methyl-3-oxo-4-((6-(trifluoro-methyl)pyridin-2-yl)methyl)-3,4-dihydro-2H-benzo [b][1,4]oxazin-7-yl)urea], less than 0.1 µM; to `C[C@@H](c1cccc(C2CC2)c1)n1c(=O)cnc2cc(NC(=O)NC(C)(C)C)ccc21` [Example 134, (S)-1-(tert-butyl)-3-(1-(1-(3-cyclopropylphenyl)eth-yl)-2-oxo-1,2-dihydroquinoxalin-6-yl)urea], 0.1 to 1 µM.
Take `Cc1ccc(C#N)c(CN2C(=O)[C@@H](C)Oc3cc(NC(=O)NC(C)(C)C)ccc32)c1` [Example 87, (R)-1-(tert-butyl)-3-(4-(2-cyano-5-methylbenzyl)-2-methyl-3-oxo-3,4-dihydro-2H-benzo[b][1,4]oxazin-7-yl)urea]: the IC50 was more than 1 µM.
On to `COCC1Cc2cc(NC(=O)NC(C)(C)C)ccc2N(Cc2ccccc2)C1=O` (stereo not shown) [Example 11, 1-(1-benzyl-3-(methoxymethyl)-2-oxo-1,2,3,4-tetrahydroquinolin-6-yl)-3-(tert-butyl)urea], for which the IC50 lay in the range of 0.1 to 1 µM.
The result for `C[C@@H]1Cc2cc(NC(=O)NC(C)(C)C)c(F)cc2N(Cc2ccccc2)C1=O` (single isomer, unassigned) [Example 334] reads more than 1 µM; that for `C[C@H]1Oc2cc(NC(=O)NC(C)(C)C)c(C#N)cc2N(Cc2cc(Cl)ccc2Cl)C1=O` [Example 367, 3-tert-butyl-1-[(2R)-6-cyano-4-[(2,5-dichlorophenyl)methyl]-2-methyl-3-oxo-2H-1,4-benzoxazin-7-yl]urea], 0.1 to 1 µM; that for `C[C@@H](c1cccc(C2CC2)n1)n1c(=O)cnc2cc(NC(=O)NC(C)(C)C)ccc21` [Example 143, (S)-1-(tert-butyl)-3-(1-(1-(6-cyclopropylpyridin-2-yl)ethyl)-2-oxo-1,2-dihydroquinoxalin-6-yl)urea], 0.1 to 1 µM.
The result for `CC(C)(C)NC(=O)Nc1ccc2c(c1Cl)CCC(=O)N2Cc1ccccc1` [Example 267, 1-(1-benzyl-5-chloro-2-oxo-1,2,3,4-tetrahydroquinolin-6-yl)-3-(tert-butyl)urea] reads 0.1 to 1 µM; that for `COc1cccc([C@H](C)n2c(=O)cnc3cc(NC(=O)NC(C)(C)C)ccc32)n1` [Example 144, (S)-1-(tert-butyl)-3-(1-(1-(6-methoxypyridin-2-yl)ethyl)-2-oxo-1,2-dihydroquinoxalin-6-yl)urea], 0.1 to 1 µM.
The result for `COc1cccc([C@H](C)N2C(=O)CCc3cc(NC(=O)NC(C)(C)C)ccc32)c1` [Example 297, (S)-1-(tert-butyl)-3-(1-(1-(3-methoxyphenyl)ethyl)-2-oxo-1,2,3,4-tetrahydroquinolin-6-yl)urea] reads 0.1 to 1 µM; that for `C[C@H](c1ccccc1)N1C(=O)CCc2cc(NC(=O)NC(C)(C)C)ccc21` [Example 14, (R)-1-(tert-butyl)-3-(2-oxo-1-(1-phenylethyl)-1,2,3,4-tetrahydroquinolin-6-yl)urea], more than 1 µM; that for `C[C@@H](c1cccc(OC(F)(F)F)n1)n1c(=O)cnc2cc(NC(=O)CCc3cccc(C(F)(F)F)c3)ccc21` [Example 318, (S)—N-(2-oxo-1-(1-(6-(trifluoromethoxy)pyridin-2-yl)ethyl)-1,2-dihydroquinoxalin-6-yl)-3-(3-(trifluoromethyl)phenyl)propanamide], 0.1 to 1 µM.
For the compound `C[C@@H]1Oc2cc(NC(=O)NC(C)(C)C)ccc2N([C@@H](C)c2ccccc2)C1=O` [Example 268, 1-(tert-butyl)-3-((S)-2-methyl-3-oxo-4-((S)-1-phenylethyl)-3,4-dihydro-2H-benzo[b][1,4]oxazin-7-yl)urea], the IC50 fell in the range of 0.1 to 1 µM.
The result for `C[C@@H](c1cccc(OCC2CCOCC2)c1)n1c(=O)cnc2cc(NC(=O)NC(C)(C)C)ccc21` [Example 117, (S)-1-(tert-butyl)-3-(2-oxo-1-(1-(3-((tetrahydro-2H-pyran-4-yl)methoxy)phenyl)eth-yl)-1,2-dihydroquinoxalin-6-yl)urea] reads more than 1 µM; that for `CCc1nc2cc(NC(=O)NC(C)(C)C)ccc2n(Cc2cccc(OC(F)(F)F)c2)c1=O` [Example 295, 1-(tert-butyl)-3-(3-ethyl-2-oxo-1-(3-(trifluoromethoxy)benzyl)-1,2-dihydroquinoxalin-6-yl)urea], more than 1 µM.
To `C[C@@H](c1cccc(OC(F)(F)F)c1)n1c(=O)cnc2cc(NC(=O)NC34CCC(CC3)C4)ccc21` [Example 211, (S)-1-(bicyclo[2.2.1]heptan-1-yl)-3-(2-oxo-1-(1-(3-(trifluoromethoxy)phenyl)ethyl)-1,2-di-hydroquinoxalin-6-yl)urea] belongs less than 0.1 µM; to `CC(C)(C)NC(=O)Nc1ccc2c(c1)CNC(=O)N2Cc1ccccc1` [Example 302, 1-(1-benzyl-2-oxo-1,2,3,4-tetrahydroquinazolin-6-yl)-3-(tert-butyl)urea], more than 1 µM; to `C[C@@H](c1ccccc1F)N1C(=O)CCc2cc(NC(=O)NC(C)(C)C)ccc21` [Example 58, 3-tert-butyl-1-{1-[(1S)-1-(2-fluorophenyl)ethyl]-2-oxo-3,4-dihydroquinolin-6-yl}urea], less than 0.1 µM.
The result for `C[C@@H](c1ccccc1)n1c(=O)cnc2cc(NC(=O)NC(C)(C)C)ccc21` [Example 98, (S)-1-(tert-butyl)-3-(2-oxo-1-(1-phenylethyl)-1,2-dihydroquinoxalin-6-yl)urea] reads 0.1 to 1 µM.
Consider `CC(C)(C)NC(=O)Nc1ccc2c(c1)CCC(=O)N2Cc1ccc(F)cc1` [Example 27, 1-(tert-butyl)-3-(1-(4-fluorobenzyl)-2-oxo-1,2,3,4-tetrahydroquinolin-6-yl)urea], for which the IC50 lay within 0.1 to 1 µM.

Broadly, the IC50 is the concentration at which inhibition is half-maximal.

Values taken from patent US20260365628A1, “SUBSTITUTED 3,4-DIHYDROQUINOLINONE INHIBITORS OF TSHR” (Septerna, Inc., priority 2022, published 2026).
